The values below are quoted from earlier work in patent US11260097B2, “Immunomodulatory composition to treat and/or prevent COVID-19 illness” (priority 2020, dated 2022).

For data set [1] the following is noted: high doses.
For data set [2] the following is noted: in vivo.

Nigellidine: the “solubility in acid media” value is given as “soluble in acid media”.
With `C[C@@H]1O[C@@H](O[C@H]2[C@H](O[C@H]3CC[C@@]4(C)[C@@H](CC[C@]5(C)[C@@H]4CC=C4[C@@H]6CC(C)(C)CC[C@]6(C(=O)O)CC[C@]45C)[C@]3(C)CO)OC[C@H](O)[C@@H]2O)[C@H](O)[C@H](O)[C@H]1O` [alpha-heridin, alpha-hederin], the water solubility result is “water soluble”.
`CC1=CC(=O)C(C(C)C)=CC1=O` [thymoquinone, 2-isopropyl-5-methyl-1,4benzoquinone]: the water solubility entry is listed as “poor water solubility”. The toxicity result in data set [1] is “toxicity at high doses”.
Turning to glycophosphopeptical [AM3], in data set [2], the “onset of clinical improvement in cough, sputum and shortness of breath” value is 3 days.
